Laboratory results published in US8808715B1, “Methods and compositions for modulating keratinocyte function” (Georgia Regents Research Institute, Inc, priority 2004, dated 2014).

Tests used:
[1] = tested on: primary epidermal keratinocytes; assay: Radiolabeled phosphatidylglycerol formation in intact keratinocytes; assay type: cell-based, mouse; settings: 100 nM PMA, 30 minutes with [3H]glycerol; p<0.01
Protocol: Primary epidermal keratinocytes were prepared from 1-3-day old neonatal ICR mice after trypsin flotation of the skin and mechanical separation of the epidermis from the dermis. The epidermal cells were released by scraping, collected by centrifugation and plated in 6-well dishes in a medium consisting of MEM containing 25 μM calcium, 2% dialyzed fetal bovine serum, 2 mM glutamine, 5 ng/mL EGF, ITS (6.25 μg/mL insulin+6.25 μg/mL transferrin+6.25 ng/mL selenious acid+5.35 μg/mL linoleic acid+1.25% bovine serum albumin), 100 U/mL penicillin, 100 μg/mL streptomycin and 0.25 μg/mL fungizone. After an overnight incubation, the cells were refed with serum-free keratinocyte medium (SFKM), in which 2% dialyzed fetal bovine serum was replaced with 90 μg/mL bovine pituitary extract. Cells were refed with fresh medium every 1-3 days.
For the PLD assay cultured primary keratinocytes were labeled for 20-24 hours with 2.5 μCi/ml [^3H] oleic acid. The cells were then exposed to vehicle or 100 nM PMA in the presence of 0.5% ethanol for 30 minutes. To measure the formation of radiolabeled phosphatidylglycerol, cells were treated for 24 hours with SFKM containing vehicle, 250 nM 1,25-dihydroxyvitamin D3 or 125 μM calcium and then labeled for an additional 30 minutes with 1-2.5 μCi/mL [^3H] or 0.4-0.5 μCi/mL [^14C]glycerol. For experiments investigating the extracellular calcium dependence of PG formation, cells were incubated for 24 hours in SFKM containing various calcium concentrations prior to the addition of 5 μCi/mL [^3H]glycerol for 30 minutes. In some cases, cells were stimulated with 25 μM calcium (control)—or 125 μM calcium-containing SFKM for 24 hours prior to the addition of [^14C]glycerol in the presence and absence of 1% ethanol. To measure phosphatidylglycerol formation in response to PMA, unlabeled cells were stimulated with 100 nM PMA in the presence of radiolabeled glycerol, as above. Reactions were terminated and the radiolabeled phosphatidylalcohol extracted, separated by thin-layer chromatography and quantified as described by Bollag (1998), referenced above.

PLD = PLD activity (radiolabeled phosphatidylethanol formation in [3H]oleate-prelabeled keratinocytes); assay type: cell-based, mouse; settings: 100 nM PMA, 30 minutes, 0.5% ethanol; p<0.02
Protocol: Near-confluent keratinocytes were incubated without radiolabel (for phosphatidylglycerol production) or pre-labeled with 2.5 μCi/mL [^3H]oleate (for phosphatidylethanol formation) for 20-24 hours. The cells were then stimulated for 30 minutes with vehicle (0.05-0.1% DMSO; Con) or 100 nM PMA in the presence of [^3H]glycerol (for phosphatidylglycerol production), or in the presence of 0.5% ethanol (for phosphatidylethanol formation). Reactions were terminated by the addition of 0.2% SDS (±5 mM EDTA) and radiolabeled phosphatidylglycerol (PG), or phosphatidylethanol (PEt) was extracted, separated by thin-layer chromatography and quantified. Values are expressed as -fold over control and represent the means±SEM of three separate experiments performed in duplicate or triplicate; *p<0.02 versus the appropriate control by an unpaired Student's t-test.
For the PLD assay cultured primary keratinocytes were labeled for 20-24 hours with 2.5 μCi/ml [^3H] oleic acid. The cells were then exposed to vehicle or 100 nM PMA in the presence of 0.5% ethanol for 30 minutes. […] Reactions were terminated and the radiolabeled phosphatidylalcohol extracted, separated by thin-layer chromatography and quantified as described by Bollag (1998), referenced above.

primary keratinocytes = assay: [3H]Glycerol uptake; assay type: cell-based, mouse; settings: 30 minutes pretreatment with 100 nM PMA, then [3H]glycerol 5 minutes
Protocol: Confluent primary keratinocytes were incubated for 30, 60, 90, 120, 300 or 600 seconds with SFKM containing 20 mM HEPES (for additional pH buffering), 1 μCi/mL [^3H]glycerol and 0.1% DMSO (control) or 100 nM PMA. Reactions were terminated by washing three times with ice-cold phosphate-buffered saline lacking divalent cations. The cells were subsequently solubilized in 0.3 M NaOH and aliquots of this extract subjected to liquid scintillation counting. Counts obtained from duplicate samples at each time point were averaged and graphed, and a linear equation was determined for each condition. Correlation coefficients obtained were typically 0.99 or greater (mean correlation coefficient for control was 0.992±0.002 and for PMA, 0.994±0.001). Slopes obtained from multiple experiments were averaged and analyzed statistically for significant differences between conditions.
The linearity of glycerol uptake determined above allowed measurement of uptake at a single time point to determine the effects of other treatments on this process. Thus, confluent keratinocytes were preincubated for 30 minutes with 0.1% DMSO (control) or 100 nM PMA prior to measuring [^3H]glycerol uptake as above but at 5 minutes only. Similarly, near-confluent primary keratinocytes were incubated for 24 hours with SFKM containing various calcium concentrations prior to measurement of radiolabeled glycerol uptake for 5 minutes.
Near-confluent keratinocyte cultures were incubated for 24 hours in SFKM (25 μM calcium) or SFKM containing 125 μM calcium (125 μM Ca^2+-SFKM) and the glycerol uptake assay performed as previously described in Zheng & Bollag (2003). Briefly, cells were incubated with SFKM containing 20 mM HEPES (for additional pH buffering) and 1 μCi/mL [^3H] glycerol for 5 minutes, since it has previously been shown that this time point is in the linear range of [^3H]glycerol uptake (Zheng & Bollag (2003). Reactions were terminated by rapidly washing three times with ice-cold phosphate-buffered saline lacking divalent cations (PBS-). Cells were then solubilized in 0.3 M NaOH and [^3H]glycerol uptake quantified by liquid scintillation spectroscopy.

PLD-2 = target: T1, PLD-2 (Homo sapiens, UniProt O14939); assay: In vitro assay of phosphatidylglycerol formation by PLD-2 (transphosphatidylation); assay type: biochemical
T1 construct: purchased Onyx Pharmaceuticals; host or cells: Sf9 insect cells (membrane preparation)
T1 sequence (O14939 whole entry, species assumed): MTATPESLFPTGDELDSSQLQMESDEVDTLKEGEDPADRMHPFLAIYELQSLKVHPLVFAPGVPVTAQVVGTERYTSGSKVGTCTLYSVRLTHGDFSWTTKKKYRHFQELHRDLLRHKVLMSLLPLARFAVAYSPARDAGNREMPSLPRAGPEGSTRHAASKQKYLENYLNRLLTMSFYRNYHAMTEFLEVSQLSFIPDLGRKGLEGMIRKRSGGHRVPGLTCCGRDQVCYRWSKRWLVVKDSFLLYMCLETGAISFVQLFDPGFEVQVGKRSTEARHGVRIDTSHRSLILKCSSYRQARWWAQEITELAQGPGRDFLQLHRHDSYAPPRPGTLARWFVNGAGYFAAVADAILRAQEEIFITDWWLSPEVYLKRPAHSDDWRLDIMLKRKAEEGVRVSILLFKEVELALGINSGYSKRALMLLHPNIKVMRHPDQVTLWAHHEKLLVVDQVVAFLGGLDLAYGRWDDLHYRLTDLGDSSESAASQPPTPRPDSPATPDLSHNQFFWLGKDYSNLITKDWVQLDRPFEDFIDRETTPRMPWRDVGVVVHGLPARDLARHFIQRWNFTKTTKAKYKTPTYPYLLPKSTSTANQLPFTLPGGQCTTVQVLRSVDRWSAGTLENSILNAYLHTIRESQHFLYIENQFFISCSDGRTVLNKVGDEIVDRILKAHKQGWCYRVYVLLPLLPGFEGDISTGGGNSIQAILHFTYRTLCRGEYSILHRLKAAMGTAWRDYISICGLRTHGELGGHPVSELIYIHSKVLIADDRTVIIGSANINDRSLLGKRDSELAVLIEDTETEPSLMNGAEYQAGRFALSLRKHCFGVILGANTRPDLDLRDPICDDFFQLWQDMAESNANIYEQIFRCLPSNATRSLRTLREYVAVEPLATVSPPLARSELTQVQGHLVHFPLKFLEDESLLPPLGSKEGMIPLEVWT
Protocol: FIGS. 5 A and B illustrate that glycerol serves as a substrate for phospholipase D in the transphosphatidylation reaction in vitro. Liposomes were prepared from [^3H-dipalmitoyl]phosphatidylcholine, phosphatidylethanolamine, phosphatidylcholine and phosphatidylinositol 4,5-bisphosphate by sonication. Glycerol at the indicated concentrations in the absence (A) or presence of 1% ethanol (B) was added to the reaction mix. Reactions were initiated by the addition of Sf9 PLD2-overexpressing membranes (1 μg protein), incubated for 30 minutes at 37° C. and terminated by the addition of 0.2% SDS (±5 mM EDTA). Lipids were extracted, separated, and quantified. The figure is representative of at least two additional experiments. There was some variability in the absolute levels of phosphatidic acid (PA), PG and phosphatidylethanol (PEt) formed, likely due to variations in the extent of formation of multilamellar vesicles during sonication.
PLD-2 activity was measured in vitro with [^3H-palmitoyl]phosphatidylcholine as substrate. […] Lipids were extracted according to the method of Bligh and Dyer and radiolabeled phospholipids separated and quantified, as described in W. B. Bollag, “Measurement of phospholipase D activity, Methods” Mol. Biol. 105 (1998) 151-160, incorporated herein by reference.

keratin 5 promoter = assay: Co-transfection analysis, keratin 5 promoter-luciferase reporter; assay type: cell-based, mouse; settings: glycerol 0.2%, 24 hours
Protocol: FIGS. 15A-B illustrate that glycerol, but not xylitol or sorbitol, inhibits DNA synthesis and enhances the inhibitory effect of an elevated extracellular Ca^2+ concentration. (A) Near-confluent keratinocytes were incubated for 24 hours with 0.02 or 0.1% glycerol and DNA synthesis measured as the incorporation of [^3H] thymidine incorporation into DNA. (B) Near-confluent keratinocytes were incubated for 24 hours with the indicated concentrations of glycerol (G, squares) or equivalent concentrations of xylitol (X, circles) in SFKM containing 25 μM (control; open symbols) or 125 μM Ca^2+ (Ca^2+; closed symbols). (C) Near-confluent keratinocytes were incubated for 24 hours with the indicated concentrations of glycerol (G) or equivalent concentrations of sorbitol (S, triangles) in SFKM containing 25 μM (control; open symbols) or 125 μM Ca^2+ (Ca^2+; closed symbols) for 24 hours. [^3H]Thymidine incorporation into DNA was then determined. Values represent the means±SEM of 4 to 5 separate experiments performed in duplicate; *p<0.05, **p<0.01 versus the control value, †p<0.05 versus the value in the presence of Ca^2+ alone. […] After 24 hours cells were refed with medium containing no addition (control) or 0.2% glycerol for an additional 24 hours. Luciferase activity was then measured using a Dual Luciferase kit as directed by the manufacturer. […] The blots were quantified using the Kodak molecular imaging software. […]
The keratin 5 and keratin 10 promoter-luciferase constructs were provided by of Dr. Bogi Andersen (University of California, Irvine, Calif.); the involucrin promoter-luciferase construct was provided by Dr. Daniel Bikle (University of California, San Francisco, Calif.). […] Luciferase activity was then measured using the Dual Luciferase Reporter Assay kit (Promega, Madison, Wis.) as directed by the manufacturer.

[2] = tested on: rapidly dividing keratinocytes; assay: Assay of DNA synthesis ([3H]thymidine incorporation) in rapidly dividing keratinocytes; assay type: cell-based; settings: 24 hours
Protocol: Keratinocytes were prepared from ICR CD-I outbred mice in accordance with a protocol approved by the Institutional Animal Care and Use Committee. Briefly, the skins were harvested and incubated overnight in 0.25% trypsin at 4° C. The epidermis and dermis were separated and basal keratinocytes scraped from the underside of the epidermis. The cells were collected by centrifugation and incubated overnight in an atmosphere of 95% air/5% carbon dioxide at 37° C. in plating medium as described in Dodd M E, Ristich V L, Ray S, Lober R M, Bollag W B (2005) Regulation of protein kinase D during differentiation and proliferation of primary mouse keratinocytes. J Invest Dermatol 125:294-306, incorporated herein by reference. The plating medium was replaced with serum-free keratinocyte medium (SFKM) also as in Dodd, et al., and the cells were refed every 1-2 days with fresh medium until use.
[^3H]Thymidine incorporation into DNA was determined as a measure of DNA synthesis as previously described by Griner, et al., above. Near-confluent keratinocyte cultures were incubated for 24 hours in SFKM containing the indicated additions. PG was added in the form of liposomes prepared by bath sonication of dried PG in SFKM to make a stock solution of 2 mg/mL. [^3H]Thymidine at a final concentration of 1 μCi/mL was then added to the cells for an additional 1-hour incubation. Reactions were terminated by washing with PBS- and macromolecules precipitated with ice-cold 5% trichloroacetic acid. Cells were solubilized in 0.3 M NaOH and the radioactivity incorporated into DNA quantified by liquid scintillation spectroscopy.
[^3H]Thymidine incorporation was used as a measure of DNA synthesis and was performed as described in Example 2. Liposomes containing PG and functional derivatives thereof were prepared by bath sonication as described in Example 2, with the exception that different concentrations of material were employed.

ICR CD1 mice = assay: Wound healing of full-thickness skin punch biopsies; assay type: in vivo, mouse; settings: topical; 2M glycerol in water, or 100 μg/mL phosphatidylglycerol liposomes in PBS-
Text: This example presents recent data on the effects of glycerol and phosphatidylglycerol treatment on wound healing obtained in ICR CD1 mice. Two full-thickness skin punch biopsies of˜4 mm were made on the backs of a total of sixteen mice. […] The rate of wound healing was then followed over four days by digital photography and computer image analysis.

AQP3 null mutant mouse = settings: studies of the AQP3 null mutant mouse; cited from earlier work

Structure (SMILES)	PG production [1]	PLD activity (radiolabeled phosphatidylethanol formation) (PLD)	glycerol uptake (primary keratinocytes)	formation of PG from phosphatidylcholine (glycerol as substrate for transphosphatidylation) (PLD-2; PLD2-overexpressing Sf9 membranes, 30 minutes at 37° C.)	competition with ethanol in the transphosphatidylation reaction (PLD-2; in presence of 1% ethanol)	reduction in keratin 5 promoter activity (keratin 5 promoter; empty vector) [%]	reduction in keratin 5 promoter activity (keratin 5 promoter; keratinocytes transfected with AQP3) [%]	effect on DNA synthesis in presence of 125 μM Ca2+ ([2]; 125 μM Ca2+ medium)	effect on DNA synthesis ([3H]thymidine incorporation into DNA) ([2]; control (25 μM Ca2+) medium)	lowest concentration that significantly inhibited DNA synthesis ([2]; 0.02% = 2.73 mM) [%]	rate of wound healing (percentage on day 4 relative to day 1) (ICR CD1 mice)	correction of the epidermal phenotype of the knockout model (AQP3 null mutant mouse)
CCCCCCCCCCCCCC(=O)O[C@@H]1[C@@H](C)[C@@]2(O)[C@@H](C=C(CO)C[C@]3(O)C(=O)C(C)=C[C@@H]23)[C@@H]2C(C)(C)[C@]12OC(C)=O [PMA, Phorbol 12-myristate 13-acetate]	decrease in PG production	large increase in PLD activity	decrease in glycerol uptake									
OCC(O)CO [glycerol]				PLD2 catalyzed the formation of PG from phosphatidylcholine in the presence of glycerol	could compete with the primary alcohol ethanol to generate PG in place of phosphatidylethanol	~9	~47	enhanced the inhibitory effect of 125 μM Ca^2+	inhibited DNA synthesis	0.02	improved the rate of wound healing	could correct the epidermal phenotype
